{"source": "patent US20050170345A1", "about": "“Neuroglobin is up-regulated by and protects neurons from hypoxic-ischemic injury” (priority 2001, published 2005)", "type_in_all_cases": "cell-based, mouse", "key": {"[1]": {"tested_on": "Ngb mRNA", "experiment": "Ngb protein expression in cultured cortical neurons transfected with antisense/sense ODN (Western blot)", "conditions": "ODN-transfected cortical neurons vs sense-transfected or untransfected control cultures", "procedure": "Cell lysates were prepared as described (Jin et al. (2000) Proc. Natl. Acad. Sci. U.S.A. 97: 10242-10247) and 100-μg protein samples were electrophoresed on 12% SDS-PAGE gels and transferred to polyvinyldifluoridine membranes. Membranes were incubated overnight at 4° C. with a rabbit polyclonal antibody against Ngb (1:2000), which was produced by immunizing with a synthetic peptide corresponding to amino-acids 35-50 (NH2-CLSSPEFLDHIRKVML-COOH, , SEQ ID NO:1) of mouse Ngb, and affinity-purified using a Sulfolink kit (Pierce). A horseradish peroxidase-conjugated anti-rabbit secondary antibody (Santa Cruz Biotechnology) and a chemiluminescence substrate system (NEN) were used to visualize the immunolabeled bands (Id.).\n(§1) A phosphorothioate antisense ODN labeled with fluorescein at the 5′ end and directed against the initial coding region of the target Ngb mRNA (5′-TCC GGG CGC TCC AT-3′, from nucleotides 90-77, SEQ ID NO:2)was designed based on the mouse Ngb sequence obtained from Genbank (accession number NM 022414). […] Cultures were analyzed by Western blotting and by MTT cell viability assay, and fluorescence microscopy was used to confirm transfection and examine its relationship to cell death, using caspase-3 activation as a marker."}, "[2]": {"tested_on": "cultured cortical neurons", "experiment": "Transfection efficiency of fluorescent ODN in cortical neuron cultures", "conditions": "fluorescent Ngb antisense ODN, DAPI counterstain, n=10", "description": "A phosphorothioate antisense ODN labeled with fluorescein at the 5′ end and directed against the initial coding region of the target Ngb mRNA (5′-TCC GGG CGC TCC AT-3′, from nucleotides 90-77, SEQ ID NO:2)was designed based on the mouse Ngb sequence obtained from Genbank (accession number NM 022414). This and a sense sequence (5′-ATG GAG CGC CCG GA-3′, SEQ ID NO:3), from nucleotides 77-90) were synthesized commercially (Operon Technologies) and purified by HPLC. Cultures were transfected with ODNs (1-10 μM) using FuGENE 6 (Roche), beginning 3 h before the onset of hypoxia. Cultures were analyzed by Western blotting and by MTT cell viability assay, and fluorescence microscopy was used to confirm transfection and examine its relationship to cell death, using caspase-3 activation as a marker.\nTo begin to investigate the possibility that Ngb protects neurons from hypoxia, cultured neurons were transfected with a phosphorothioate antisense ODN directed against the initial coding region of the target Ngb mRNA (5′-TCC GGG CGC TCC AT-3′, from nucleotides 90-77, SEQ ID NO:4) or with a control sense sequence (5′-ATG GAG CGC CCG GA-3′, from nucleotides 77-90, SEQ ID NO:5), both labeled with fluorescein at the 5′ end. Transfection efficiency, measured in cultures transfected with the fluorescent Ngb antisense ODN and counterstained with DAPI, was 96±1% (n=10). […]"}, "[3]": {"tested_on": "cultured cortical neurons", "experiment": "Cell viability (MTT absorbance, trypan blue exclusion) of ODN-treated cultured cortical neurons", "procedure": "Neuronal cultures were prepared from the cerebral hemispheres of 16-day Charles River CD1 mouse embryos, seeded at 3×10^5 cells per well on 24-well culture dishes precoated with poly-D-lysine, and grown in Eagle's minimal essential medium (GIBCO BRL) with 5% horse serum and 5% fetal bovine serum (Jin et al. (2000) Proc. Natl. Acad. Sci. U.S.A. 97: 10242-10247). Cultures were treated with 10 μM cytosine arabinoside on day 6 and used on day 11, when >95% of cells expressed the neuronal marker, microtubule-associated protein 2. […] Cell viability was assayed by incubating cultures with 5 mg/ml of 3-(4,5-dimethylthiazol-2-yl)-2,5-diphenyl tetrazolium bromide (MTT) at 37° C. for 2 h and measuring absorbance at 570 nm in solubilized cells using a Cytofluor Series 4000 multi-well plate-reader (PerSeptive Biosystems). […]\nas §1"}, "[4]": {"tested_on": "17-20 kDa caspase-3 cleavage product", "experiment": "Caspase-3 cleavage product immunofluorescence in ODN-transfected cortical neurons", "conditions": "fluorescence microscopy, hypoxic cortical neurons", "procedure": "Cultures were fixed with 4% paraformaldehyde and incubated over night at 4° C. with one or more of the following primary antibodies: rabbit polyclonal anti-Ngb (1:200), mouse monoclonal anti-NeuN (1:200, Chemicon), and rabbit polyclonal anti-17-20 kDa caspase-3 cleavage product (1:100, New England Biolabs). The secondary antibodies (all 1:200) were fluorescein isothiocyanate-conjugated goat anti-rabbit or anti-mouse IgG (Vector) and rhodamine-conjugated donkey anti-rabbit IgG (Jackson ImmunoResearch). Controls for non-specific binding included omitting primary (FIG. 1C) or secondary antibodies. In addition, in some cultures, nuclei were labeled with 4′,6-diamidino-2-phenylindole (DAPI) or DNA strand breaks were labeled with the Klenow fragment of DNA polymerase I (Roche) followed by rhodamine avidin D (Vector), as described (Jin et al. (1999) J Neurochem 72: 1204-1214). Fluorescence signals were detected with a Nikon E800 epifluorescence microscope using excitation/emission wavelengths of 535/565 nm for rhodamine (red), 470/505 nm for fluorescein isothiocyanate (green) and 360/400 nm for DAPI (blue). Results were recorded with a Magnifire digital color camera (Optronics). […]"}}, "note": "“Also recorded” adds a separate entry of the source. {Fluorescein} = fluorescein label", "data": [{"substance": "5′-TCC GGG CGC TCC AT-3′ (antisense TCCGGGCGCTCCAT; DNA, all phosphorothioate, 5' {Fluorescein}, methylation of C not given here) [antisense ODN]", "values": [{"measurement": "Ngb protein expression", "setting": "[1]", "value": "reduced; also recorded: decreased Ngb expression"}, {"measurement": "Transfection efficiency", "setting": "[2]", "value": "96±1", "unit": "%"}, {"measurement": "effect on the toxicity of staurosporine or SNP", "setting": "[3]; 0.1 μM staurosporine or 200-400 μM SNP, 12 h, 5 μM ODN", "value": "no effect"}, {"measurement": "viability of cultured neurons exposed to hypoxia", "setting": "[3]; 12 h without oxygen, 5 μM ODN added 3 h prior, MTT absorbance or trypan blue exclusion", "value": "decrease in the viability"}, {"measurement": "transfected cells co-expressing the 17-20 kDa caspase-3 cleavage product", "setting": "[4]", "value": "many"}]}]}
